A short description of experiment [1]: Ferric reducing antioxidant power (FRAP). As to conditions: pH 3.6, 593 nm after 15 min; Figure 6. The procedure:
The FRAP assay was performed according to previously described method with some modifications. FRAP working solution was prepared freshly each time. The stock solution included 2.40 mL acetate buffer (300mM, pH 3.6), 0.24 mL 10 mM TPTZ solution in 40 mM HCl, and 0.24 mL of 20 mM FeCl3 × 6H2O in water. The mixture was kept away from light and warmed at 37 °C before using. Then, 240 μL sample Troloxor solvent (blank sample) standard solution was added to FRAP stock solution. The absorbance was measured at 593 nm after 15 min. Final concentration of methanolic solutions of the studied dendrimers were in range 0–24 μM and Trolox® solutions from 0 to 50 μM.All determinations were carried out in triplicate.

A short description of experiment [2]: Cupric reducing antioxidant capacity (CUPRAC). The protocol: The CUPRAC method was performed according to procedure described by Apak et al. with small modifications, which was necessary to correlate this method to other used assays. CUPRAC working solution was prepared freshly each time. The stock solution including 0.96 mL ammonium acetate buffer (1 M, pH 7), 0.96 mL 7.5 mM neocuproine solution in MeOH, and 0.96 mL of 10 mM CuCl2 in water was kept away from light. Then, 240 μL dendrimer, Trolox, or solvent (blank sample) standard solution was added to CUPRAC stock solution, and after 25 min, absorbance at 450 nm was recorded. Results were expressed as μM Trolox L^−1. All determinations were carried out in triplicate.

For experiment [3] the following is noted: 5.5 μM; cited from earlier work. The protocol:
The results of DPPH and ABTS tests for the (+)10-charged 16, 18, 20, 22, 24, and 26 bola dendrimers at three concentrations (3.78, 7.69, and 15.38 μM) are shown in Figure 5, whereas results of FRAP and CUPRAC tests are shown in Figure 6. Data include also two neutral derivatives 19 and 25 for the PABA and PAS series, respectively. Considering TEAC values, dendrimers show different level of scavenging capacity in both tests, being better scavengers of radical cations than single electron bearing neutral radicals. The highest cationic radical scavenging ability in ABTS test was found for […] ...

Experiment [4] relates to rat primary cerebellar granule cells (CGC). The format is cell-based. As to conditions: 5 μM, 30 min exposure in Locke 25, PI staining 24 h later; Figure 3. The procedure:
Primary CGC cultures were prepared from seven-day-old Wistar rats of both sexes as previously described. Procedures using rat pups were performed in accordance with international standards of animal care guidelines and were approved by the Local Care of Experimental Animals Committee. The culture was incubated in growth basal Eagle’s medium (Gibco, Thermo Fisher Scientific, Grand Island, NY, USA), supplemented with 10% fetal calf serum, 25 mM KCl, 4 mM glutamine, penicillin (50 U/mL), and streptomycin ([…]) (Sigma-Aldrich, Poznan, Poland). The density of the cell suspension seeded on the 24-well plates, coated with poly-L-lysine, was 1 × 10^6 cells per well. […]
Stock solutions were prepared by dissolving dendrimers in dimethylsulfoxide (DMSO) (Sigma-Aldrich, Poznan, Poland), and subsequent dilutions were made in cell medium. The effect of the dendrimers on CGC viability was assessed 24 h after a 30 min exposure of the cultures to the tested compounds using propidium iodide (PI) staining. […] Then, the cells were fixed with 80% methanol, stained with PI (0.5 µg/mL), and viable and dead neurons were counted using an Axiovert fluorescence microscope (Carl Zeiss AG, Germany). The viability of the neurons was determined as percentages of live cells in proportion to all cells.

Molecules are shown by their SMILES.

`Nc1ccc(S(=O)(=O)O)cc1` [p-aminobenzenesulfonic acid]: the “redox potential / reducing capacity in FRAP test (in words)” value in experiment [1] is on record as “insignificant”. Further, the “redox potential / reducing capacity in CUPRAC test (in words)” value in experiment [2] (pH 7, 450 nm after 25 min, Figure 6) is “insignificant”.
Take `O=C(O)/C=C/c1ccc(O)c(O)c1` [caffeic acid]: the “Trolox equivalence in DPPH test” value in experiment [3] is 6–7.
With `Nc1ccc(S(=O)(=O)NCCCCCOc2cc(OCCNS(=O)(=O)c3ccc(N)cc3)cc(C(=O)NCCNC(=O)[C@H](Cc3c[nH]c4ccccc34)NC(=O)[C@H](CCCCNC(=O)c3cc(OCCNC(=O)[C@@H](N)CCCCNC(=O)[C@@H](N)Cc4c[nH]c5ccccc45)cc(OCCNC(=O)[C@@H](N)CCCCNC(=O)[C@@H](N)Cc4c[nH]c5ccccc45)c3)NC(=O)c3cc(OCCNC(=O)[C@@H](N)CCCCNC(=O)[C@@H](N)Cc4c[nH]c5ccccc45)cc(OCCNC(=O)[C@@H](N)CCCCNC(=O)[C@@H](N)Cc4c[nH]c5ccccc45)c3)c2)cc1` [compound 26], the “viable CGC cells conserved” value in experiment [4] is 55–85%. Further, the “enhancement of antioxidant power in transition between FRAP/CUPRAC model” value in experiment [2] (3.78 and 7.69 μM) was roughly 11 fold.

The record behind these values is publication PMC8000084, “Peptide Dendrimers with Non-Symmetric Bola Structure Exert Long Term Effect on Glioblastoma and Neuroblastoma Cell Lines” (Biomolecules, 2021).
